Biological target: T1, Axl (Homo sapiens, UniProt P30530)
T1 construct: endogenous in cells; host or cells: HeLa cells
T1 sequence (P30530 26-894): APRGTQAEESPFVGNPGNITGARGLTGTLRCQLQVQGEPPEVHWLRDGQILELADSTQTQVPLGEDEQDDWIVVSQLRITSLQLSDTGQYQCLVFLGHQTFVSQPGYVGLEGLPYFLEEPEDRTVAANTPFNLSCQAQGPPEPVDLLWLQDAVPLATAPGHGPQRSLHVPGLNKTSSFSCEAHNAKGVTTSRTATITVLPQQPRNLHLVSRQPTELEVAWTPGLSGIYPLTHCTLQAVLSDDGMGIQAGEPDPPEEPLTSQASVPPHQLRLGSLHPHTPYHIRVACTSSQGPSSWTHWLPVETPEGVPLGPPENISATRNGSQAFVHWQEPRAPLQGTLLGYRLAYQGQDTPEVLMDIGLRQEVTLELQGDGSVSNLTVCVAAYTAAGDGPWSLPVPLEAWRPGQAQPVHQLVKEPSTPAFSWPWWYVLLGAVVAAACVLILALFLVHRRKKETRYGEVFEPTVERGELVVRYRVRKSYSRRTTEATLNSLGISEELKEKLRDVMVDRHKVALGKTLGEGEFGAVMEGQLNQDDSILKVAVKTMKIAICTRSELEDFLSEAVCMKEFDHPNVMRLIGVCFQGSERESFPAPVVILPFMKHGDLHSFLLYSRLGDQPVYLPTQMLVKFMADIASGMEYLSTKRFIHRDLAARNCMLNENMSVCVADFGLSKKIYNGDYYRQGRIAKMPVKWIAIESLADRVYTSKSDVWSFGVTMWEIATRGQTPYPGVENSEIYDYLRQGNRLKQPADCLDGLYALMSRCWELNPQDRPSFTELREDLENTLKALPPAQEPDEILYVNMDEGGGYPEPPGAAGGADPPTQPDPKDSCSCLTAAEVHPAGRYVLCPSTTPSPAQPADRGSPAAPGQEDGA
Assay: Phospho-Akt in-cell Western assay (inhibition of Axl activity)
Assay type: cell-based
Summary of the method: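 HeLa cells on poly-L-lysine, starved 24 h in 0.5% FCS DMEM with Axl/Fc 500 ng/mL, pre-treated with compound 1 h at 37° C. Axl stimulated 5 min by anti-Axl/anti-mouse antibody cross-linking. Fixed cells probed with anti-phospho-Akt and HRP secondary, chemiluminescence read.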

[1] = inhibition of Axl activity, Table 1
[2] = Table 5, Hela cells, Axl antibody cross-linking stimulation, phospho-Akt chemiluminescence

SMILES	IC50 [1] [µM]	IC50 [2] [µM]	other results
Nc1nc(Nc2ccc3c(c2)OCCO3)nn1C(=O)c1ccc([N+](=O)[O-])cc1 [compound 240, 5-amino-3-(1,4-benzodioxan-6-yl)amino-1-(4-nitrophenyl)carbonyl-1H-1,2,4-triazole]	> 20	–	–
Cc1cc(C(=O)n2nc(N)nc2Nc2ccc3c(c2)OCCO3)ccc1F [compound 241, 3-amino-5-(1,4-benzodioxan-6-yl)amino-1-[(4-fluoro-3-methyl)phenyl]carbonyl-1H-1,2,4-triazole]	–	–	IC50 (Table 2, Hela cells, Axl antibody cross-linking stimulation, phospho-Akt chemiluminescence): > 20 µM
Cc1cc(C(=O)n2nc(Nc3ccc4c(c3)OCCO4)nc2N)ccc1F [compound 242, 5-amino-3-(1,4-benzodioxan-6-yl)amino-1-[(4-fluoro-3-methyl)phenyl]carbonyl-1H-1,2,4-triazole]	> 20	–	–
Nc1ccc(C(=O)n2nc(Nc3ccc4c(c3)OCCO4)nc2N)cc1 [compound 243, 5-amino-1-(4-aminophenyl)carbonyl-3-(1,4-benzodioxan-6-yl)amino-1H-1,2,4-triazole]	1 to 10	–	–
Nc1nc(Nc2ccc3c(c2)OCCO3)nn1C(=O)c1ccc(C(F)(F)F)cc1 [compound 244, 5-amino-3-(1,4-benzodioxan-6-yl)amino-1-[(4-trifluoromethyl)phenyl]carbonyl-1H-1,2,4-triazole]	> 20	–	–
N#Cc1ccc(C(=O)n2nc(Nc3ccc4c(c3)OCCO4)nc2N)cc1 [compound 245, 5-amino-1-(4-cyanophenyl)carbonyl-3-(1,4-benzodioxan-6-yl)amino-1H-1,2,4-triazole]	> 20	–	–
CC(=O)Nc1ccc(C(=O)n2nc(Nc3ccc4c(c3)OCCO4)nc2N)cc1 [compound 246, 1-[(4-Acetylamino)phenyl]carbonyl-5-amino-3-(1,4-benzodioxan-6-yl)-amino-1H-1,2,4-triazole]	1 to 10	–	–
CN(C)c1ccc(C(=O)n2nc(Nc3ccc4c(c3)OCCO4)nc2N)cc1 [compound 247, 5-amino-1-[(4-dimethylamino)phenyl]carbonyl-3-(1,4-benzodioxan-6-yl)amino-1H-1,2,4-triazole]	1 to 10	–	–
CS(=O)(=O)c1ccc(C(=O)n2nc(Nc3ccc4c(c3)OCCO4)nc2N)cc1 [compound 248, 5-amino-3-(1,4-benzodioxan-6-yl)amino-1-[(4-methylsulfonyl)phenyl]carbonyl-1H-1,2,4-triazole]	> 20	–	–
Cc1ccc(C(=O)n2nc(Nc3ccc4c(c3)OCCO4)nc2N)cc1Cl [compound 249, 5-amino-1-[(3-chloro-4-methyl)phenyl]carbonyl-3-(1,4-benzodioxan-6-yl)-amino-1H-1,2,4-triazole]	> 20	–	–
Cc1cccc(C(=O)n2nc(Nc3ccc4ncsc4c3)nc2N)c1 [compound 250, 5-amino-3-(benzothiazol-6-yl)amino-1-(3-methylphenyl)carbonyl-1H-1,2,4-triazole]	–	1 to 10	–
Cc1cccc(C(=O)n2nc(Nc3ccc4ncccc4c3)nc2N)c1 [compound 251, 5-amino-1-(3-methylphenyl)carbonyl-3-(6-quinolinyl)amino-1H-1,2,4-triazole]	–	1 to 10	–
Cc1cccc(C(=O)n2nc(Nc3ccc4[nH]ccc4c3)nc2N)c1 [compound 252, 5-amino-3-(1H-indol-5-yl)amino-1-(3-methylphenyl)carbonyl-1H-1,2,4-triazole]	–	1 to 10	–
Cc1cccc(C(=O)n2nc(Nc3ccc4cn(C)nc4c3)nc2N)c1 [compound 253, 5-amino-3-(1H-2-methyl-indazol-6-yl)amino-1-(3-methylphenyl)carbonyl-1H-1,2,4-triazole]	–	1 to 10	–
Cc1cccc(C(=O)n2nc(Nc3ccc4cnn(C)c4c3)nc2N)c1 [compound 254, 5-amino-3-(1H-1-methyl-indazol-6-yl)amino-1-(3-methylphenyl)carbonyl-1H-1,2,4-triazole]	–	> 20	–
Cc1cccc(C(=O)n2nc(Nc3ccc4[nH]c(C)cc4c3)nc2N)c1 [compound 255, 5-amino-3-(1H-2-methyl-indol-5-yl)amino-1-(3-methylphenyl)carbonyl-1H-1,2,4-triazole]	–	1 to 10	–

From US8389557B2, “Triazole derivatives useful as Axl inhibitors” (Rigel Pharmaceuticals, Inc., priority 2005, dated 2013)
